Where two headings read alike, the source gives them in different places.
Key:
[1] = biological target: T1, CFTR (F508del/MF-HBE cells) (Homo sapiens, UniProt P13569, DEL508-508); assay: Ussing chamber assay of CFTR-mediated short-circuit currents, Assay D (single concentration of 1 μM); type: cell-based; conditions: with 44 nM potentiator and 18 μM Tezacaftor, 20% human serum; for D activity at 1 μM (%): 18-24 hours
T1 construct: human bronchial epithelial (HBE) cells derived from CF subjects heterozygous for F508del and a minimal function CFTR mutation (F508del/MF-HBE); endogenous in cells; host or cells: Primary human bronchial epithelial cells from CF subjects (F508del/MF genotype), differentiated at an air-liquid interface
T1 sequence (P13569 with tags, fused parts or gaps DEL508-508): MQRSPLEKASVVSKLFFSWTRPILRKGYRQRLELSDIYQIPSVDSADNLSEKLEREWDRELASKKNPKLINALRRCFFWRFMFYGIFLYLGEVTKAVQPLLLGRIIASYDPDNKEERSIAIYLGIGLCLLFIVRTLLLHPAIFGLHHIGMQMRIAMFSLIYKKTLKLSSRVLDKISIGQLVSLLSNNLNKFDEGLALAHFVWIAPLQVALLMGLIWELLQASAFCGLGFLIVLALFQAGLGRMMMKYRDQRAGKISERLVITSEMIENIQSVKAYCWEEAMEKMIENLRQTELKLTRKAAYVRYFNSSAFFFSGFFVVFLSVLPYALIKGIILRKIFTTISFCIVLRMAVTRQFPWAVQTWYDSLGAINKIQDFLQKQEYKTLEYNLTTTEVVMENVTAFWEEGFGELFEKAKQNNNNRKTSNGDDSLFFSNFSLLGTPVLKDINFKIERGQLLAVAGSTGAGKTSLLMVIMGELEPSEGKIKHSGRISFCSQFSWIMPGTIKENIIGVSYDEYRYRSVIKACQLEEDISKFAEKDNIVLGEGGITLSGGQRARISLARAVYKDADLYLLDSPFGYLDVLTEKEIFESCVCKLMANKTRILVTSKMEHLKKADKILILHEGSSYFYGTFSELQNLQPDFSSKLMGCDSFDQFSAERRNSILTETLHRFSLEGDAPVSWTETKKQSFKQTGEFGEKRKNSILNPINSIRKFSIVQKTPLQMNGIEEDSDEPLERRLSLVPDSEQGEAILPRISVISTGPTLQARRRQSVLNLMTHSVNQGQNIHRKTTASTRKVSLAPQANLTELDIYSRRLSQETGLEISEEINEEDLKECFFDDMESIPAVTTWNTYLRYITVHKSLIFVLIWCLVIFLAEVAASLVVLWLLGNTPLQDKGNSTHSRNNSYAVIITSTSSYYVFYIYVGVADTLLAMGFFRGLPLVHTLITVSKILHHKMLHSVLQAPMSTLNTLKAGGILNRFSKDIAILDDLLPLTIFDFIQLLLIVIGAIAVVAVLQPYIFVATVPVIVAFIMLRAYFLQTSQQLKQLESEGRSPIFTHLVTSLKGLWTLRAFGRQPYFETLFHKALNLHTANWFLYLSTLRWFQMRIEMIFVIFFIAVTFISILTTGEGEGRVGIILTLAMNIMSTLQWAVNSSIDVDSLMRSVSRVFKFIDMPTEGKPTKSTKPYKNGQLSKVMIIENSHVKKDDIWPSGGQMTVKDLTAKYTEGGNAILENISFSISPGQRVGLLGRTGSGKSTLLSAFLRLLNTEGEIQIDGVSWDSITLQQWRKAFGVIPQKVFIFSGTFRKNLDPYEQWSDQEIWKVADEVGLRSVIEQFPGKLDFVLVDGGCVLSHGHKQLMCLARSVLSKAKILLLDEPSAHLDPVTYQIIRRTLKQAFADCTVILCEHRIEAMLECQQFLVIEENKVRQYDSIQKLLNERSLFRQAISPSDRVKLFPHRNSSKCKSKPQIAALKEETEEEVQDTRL
Summary of the method: (§1)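 F508del/MF-HBE cells grown at air-liquid interface were incubated 18-24 h at 37 °C in 20% human serum with correctors plus 18 μM tezacaftor and a fixed partner compound (33 nM for concentration series, 44 nM at 1 μM). ISC was read at 0 mV after 20 μM forskolin, minus the post-inhibitor current.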

[2] = biological target: T1, CFTR (F508del/MF-HBE cells); assay: Ussing chamber assay of CFTR-mediated short-circuit currents, Assay C (0.026 μM to 25 μM, 6 concentrations); type: cell-based; conditions: with 33 nM potentiator and 18 μM Tezacaftor, 20% human serum; for Emax: read-out: C Max activity (%)
Summary of the method: as §1

Structure (SMILES) | D act. at 1 μM (%) [1] | EC50 [2] [nM] | Emax [2] [%] | D activity at 1 μM (%) [1] | Emax ([2]; 18-24 hours) [%]
Cc1cccc(CC(C)C)c1-c1nc2nc(c1C)OC[C@@H](CC1(C)CC1)N(Cc1cnc3oc(C(C)C)cc3n1)C(=O)c1cccc(c1)S(=O)(=O)N2 (atropisomer, axis not shown) [IV-46] | +++ (+++ is >60%) | < 1000 | > 60 | – | –
Cc1cccc(C)c1-c1nc2nc(c1C)OC[C@@H](CC13CC(C1)C3)N(Cc1cnc3cc(C4(C)CC4)n(C)c3n1)C(=O)c1cccc(c1)S(=O)(=O)N2 [Compound I-228] | – | < 1000 | – | +++ (+++ is >60%) | > 60
Cc1cccc(C)c1-c1cc2nc(n1)NS(=O)(=O)c1cccc(c1)C(=O)N(Cc1cnc3cc(C(C)(C)C)n(C)c3n1)[C@@H](C(C(C)C)C(C)C)CO2 [IV-32] | +++ (+++ is >60%) | < 1000 | > 60 | – | –
COc1c2nc(nc1-c1c(C)cccc1C)NS(=O)(=O)c1cccc(c1)C(=O)N(Cc1cnc3cc(C4(C)CC4)n(C)c3n1)[C@H](COC(C)C)CO2 [IV-11] | +++ (+++ is >60%) | < 1000 | > 60 | – | –
Cc1cccc(CC(C)C)c1-c1nc2nc(c1C)OC[C@@H](CC1(C)CC1)N(Cc1cnc3oc(C(C)(C)C)cc3n1)C(=O)c1cccc(c1)S(=O)(=O)N2 (atropisomer, axis not shown) [IV-45] | +++ (+++ is >60%) | 1000 to 3000 | > 60 | – | –
Cc1cccc(C)c1-c1nc2nc(c1C)OC[C@@H](C[C@H]1CCCCO1)N(Cc1cnc3cc(C4CC4)n(C)c3n1)C(=O)c1cccc(c1)S(=O)(=O)N2 [Compound I-193] | – | < 1000 | – | +++ (+++ is >60%) | > 60
Cc1cccc(C)c1-c1cc2nc(n1)NS(=O)(=O)c1cccc(c1)C(=O)N(Cc1cnc3cc(C4(C)CC4)n(C)c3n1)[C@@H](C(C1CCC1)C1CCC1)CO2 (single isomer, unassigned) [IV-20, 11-[di(cyclobutyl)methyl]-6-(2,6-dimethylphenyl)-12-[[5-methyl-6-(1-methylcyclopropyl)pyrrolo[2,3-b]pyrazin-3-yl]methyl]-2,2-dioxo-9-oxa-2λ^6-thia-3,5,12,19-tetrazatricyclo[12.3.1.14,8]nonadeca-1(18),4(19),5,7,14,16-hexaen-13-one] | +++ (+++ is >60%) | < 1000 | > 60 | – | –
Cc1cccc(C)c1-c1cc2nc(n1)NS(=O)(=O)c1cccc(c1)C(=O)N(Cc1cnc3cc(C(C)(C)C)n(C)c3n1)[C@H](CC(C)(C)C)CO2 [Compound I-239] | – | < 1000 | – | +++ (+++ is >60%) | > 60
Cc1cccc(C)c1-c1cc2nc(n1)NS(=O)(=O)c1cccc(c1)C(=O)N(Cc1cnc3oc(COC(C)C)cc3n1)[C@H](CC1(C)CC1)CO2 [IV-18] | +++ (+++ is >60%) | 1000 to 3000 | > 60 | – | –
Cc1cccc(C)c1-c1nc2nc(c1C)OC[C@@H](CC(C)(C)C)N(Cc1cnc3oc(C(C)C)cc3n1)C(=O)c1cccc(c1)S(=O)(=O)N2 [Compound I-110] | – | 1000 to 3000 | – | +++ (+++ is >60%) | > 60
Cc1cccc(CC(C)C)c1-c1nc2nc(c1C)OC[C@@H](CC(C)(C)C)N(Cc1cnc3cc(C4(C)CC4)n(C)c3n1)C(=O)c1cccc(c1)S(=O)(=O)N2 (atropisomer, axis not shown) [IV-19] | +++ (+++ is >60%) | < 1000 | > 60 | – | –
Cc1cccc(C)c1-c1nc2nc(c1C)OC[C@@H](CC(C)(C)C)N(Cc1ncc3cc(C4CC4)n(C)c3n1)C(=O)c1cccc(c1)S(=O)(=O)N2 [Compound I-265] | – | 1000 to 3000 | – | +++ (+++ is >60%) | > 60
Cc1cccc(C)c1-c1nc2nc(c1C)OC[C@@H](COC(C)C)N(Cc1cnc3cc(C4(C)CC4)n(C)c3n1)C(=O)c1cccc(c1)S(=O)(=O)N2 [IV-2] | +++ (+++ is >60%) | < 1000 | > 60 | – | –
COc1c2nc(nc1-c1c(C)cccc1C)NS(=O)(=O)c1cccc(c1)C(=O)N(Cc1cnc3cc(C(C)C)n(C)c3n1)[C@H](CC(C)(C)C)CC2 [Compound I-158] | – | 1000 to 3000 | – | +++ (+++ is >60%) | > 60
Cc1cccc(C)c1-c1cc2nc(n1)NS(=O)(=O)c1cccc(c1)C(=O)N(Cc1cnc3oc(CC(C)C)cc3n1)[C@H](CC1(C)CC1)CO2 [IV-24, (11R)-6-(2,6-dimethylphenyl)-12-[(6-isobutylfuro[2,3-b]pyrazin-2-yl)methyl]-11-[(1-methylcyclopropyl)methyl]-2,2-dioxo-9-oxa-2λ^6-thia-3,5,12,19-tetrazatricyclo[12.3.1.14,8]nonadeca-1(18),4(19),5,7,14,16-hexaen-13-one] | +++ (+++ is >60%) | 3000 to 30000 | > 60 | – | –
CCC(C)(C)C[C@H]1COc2cc(-c3c(C)cccc3C)nc(n2)NS(=O)(=O)c2cccc(c2)C(=O)N1Cc1cnc2oc(C3CC3)cc2n1 [IV-34] | +++ (+++ is >60%) | 1000 to 3000 | > 60 | – | –
Cc1cccc(C)c1-c1cc2nc(n1)NS(=O)(=O)c1cccc(c1)C(=O)N(Cc1ncc3cc(C4CC4)n(C)c3n1)[C@H](CC13CC(C1)C3)CO2 [Compound I-264] | – | 1000 to 3000 | – | +++ (+++ is >60%) | > 60
Cc1cccc(C)c1-c1cc2nc(n1)NS(=O)(=O)c1cccc(c1)C(=O)N(Cc1ncc3cc(C(C)(C)C)n(C)c3n1)[C@H](CC(C)(C)C)CO2 [IV-38] | +++ (+++ is >60%) | 1000 to 3000 | > 60 | – | –
CCC(C)(C)C[C@H]1COc2cc(-c3c(C)cccc3C)nc(n2)NS(=O)(=O)c2cccc(c2)C(=O)N1Cc1cnc2oc(C(C)(C)C)cc2n1 [IV-37] | +++ (+++ is >60%) | 1000 to 3000 | > 60 | – | –
Cc1cccc(CC2CCCC2)c1-c1nc2nc(c1C)OC[C@@H](CC(C)(C)C)N(Cc1cnc3oc(C4CC4)cc3n1)C(=O)c1cccc(c1)S(=O)(=O)N2 (atropisomer, axis not shown) [Compound I-195] | – | < 1000 | – | +++ (+++ is >60%) | > 60
Cc1cccc(CC(C)C)c1-c1nc2nc(c1C)OC[C@@H](CC(C)(C)C)N(Cc1cnc3oc(C4CC4)cc3n1)C(=O)c1cccc(c1)S(=O)(=O)N2 (atropisomer, axis not shown) [Compound I-137] | – | < 1000 | – | +++ (+++ is >60%) | > 60
Cc1cccc(COC(C)C)c1-c1nc2nc(c1C)OC[C@@H](CC(C)(C)C)N(Cc1cnc3oc(C4CC4)cc3n1)C(=O)c1cccc(c1)S(=O)(=O)N2 [IV-39] | +++ (+++ is >60%) | 1000 to 3000 | > 60 | – | –
Cc1cccc(C)c1-c1nc2nc(c1C)OC[C@@H](CC(C)(C)C)N(Cc1cnc3cc(C(C)C)n(C)c3n1)C(=O)c1cccc(c1)S(=O)(=O)N2 [Compound I-168] | – | < 1000 | – | +++ (+++ is >60%) | > 60
Cc1cccc(C)c1-c1cc2nc(n1)NS(=O)(=O)c1cccc(c1)C(=O)N(Cc1cnc3cc(C(C)(C)C)n(C)c3n1)[C@H](COC(C)C)CO2 [Compound I-185] | – | < 1000 | – | +++ (+++ is >60%) | > 60
COc1c2nc(nc1-c1c(C)cccc1C)NS(=O)(=O)c1cccc(c1)C(=O)N(Cc1cnc3oc(C(C)(C)C)cc3n1)[C@H](CC1(C)CC1)CO2 [IV-12] | +++ (+++ is >60%) | 1000 to 3000 | > 60 | – | –
Cc1cccc(C)c1-c1cc2nc(n1)NS(=O)(=O)c1cccc(c1)C(=O)N(Cc1cnc3oc(C)c(C4CC4)c3n1)[C@H](CC13CC(C1)C3)CO2 [Compound I-86] | – | 1000 to 3000 | – | +++ (+++ is >60%) | > 60
Cc1cccc(C)c1-c1cc2nc(n1)NS(=O)(=O)c1cccc(c1)C(=O)N(Cc1ncc3cc(C4CC4)n(C)c3n1)[C@H](CC1(C)CC1)CO2 [Compound I-263] | – | 1000 to 3000 | – | +++ (+++ is >60%) | > 60
Cc1cccc(C)c1-c1nc2nc(c1C)OC[C@@H](C[C@H]1CCCCO1)N(Cc1cnc3cc(C(C)C)n(C)c3n1)C(=O)c1cccc(c1)S(=O)(=O)N2 [Compound I-194] | – | < 1000 | – | +++ (+++ is >60%) | > 60

Reference: patent publication US20250340574A1, “MODULATORS OF CYSTIC FIBROSIS TRANSMEMBRANE CONDUCTANCE REGULATOR” (Vertex Pharmaceuticals Incorporated, priority 2022, published 2025)
